# Results: patent US20260335279A1, “METHODS OF TREATING ISCHEMIA-REPERFUSION INJURIES” (University of Cincinnati, priority 2022, published 2026)
# Legend:
# [1] = system: myocardial ischemia-reperfusion injury in mice; assay: Speckle tracking echocardiography in murine myocardial ischemia-reperfusion injury; assay type: in vivo, mouse (C57BL/6); details: 30 min ischemia, 24 h reperfusion; 25 mg/kg/12 h intraperitoneal; vs vehicle
# Procedure: Cardiac function was assessed by transthoracic echocardiography using the VisualSonics Vevo F2 system (VisualSonics, Toronto, ON). Sedation was induced by 3% isoflurane and maintained at 0.5% isoflurane during the procedure, during which the animals were placed on a heated table under a lamp at approximately 37 °C. Parasternal long axis (PSLAX) and short axis (SAX) images were recorded and then analyzed on a separate workstation with VevoLab software (Vevo 2100, v1.6, Visualsonic, Toronto, Canada). From the M-mode images, left ventricular cavity size for systole and diastole (LV dia;s, LV dia;d, LV Vol;s and LV Vol;d) were measured. Heart rate (HR), stroke volume (SV), and the echocardiographic calculation for fractional shortening (FS), ejection fraction (EF) and cardiac output (CO) were obtained using the Vevo software. Treatment and control groups were analyzed on the same day by the same technician in order to minimize variation. For VevoStrain analysis, B-mode images of 300 frames at greater than 200 frames/second were used.
# (§1) The myocardial ischemia/reperfusion surgical protocol was applied as follows. Mice were anesthetized with 2% isoflurane inhalation until anesthesia was achieved. The animals' body temperature was maintained at 37 °C throughout the surgical procedure using a heating pad. A tracheal tube was placed via tracheal intubation and the respiration rate was set at 150 strokes/min with a tidal volume of 200 μL, using Minivent ventilator for mice (Model 845, Harvard Apparatus). A 1.2 cm incision was made over the left chest. After retraction of the pectoral major and minor muscles, the fourth intercostal space was exposed. […] The left anterior descending coronary artery (LAD) was then located, sutured, and ligated at a site 3-4 mm distal to the origin of the artery under the left atrium using a 6-0 silk suture. The heart was allowed to stabilize for 15 min and right after, ischemia was induced by tightening the suture against a small piece of polyethylene tube. At the end of the 30-minute ischemia period, the ligature was released for the induction of reperfusion, and then the manual evacuation of air and closure of muscle and skin were performed. The mouse was then monitored during the recovery period, which was generally completed within 3 to 5 minutes. Sustain-released buprenorphine (BupSR, 0.5 mg/kg body weight) was provided by subcutaneous injection. Mice were then left to recover until the end of the reperfusion (2 hours, 12 hours, 24 hours, or 4 weeks). The sham group underwent the same surgical procedure except that the LAD was not occluded.
# To explore whether KLF5 inhibition holds therapeutic potential against myocardial I/R injury, WT mice were subjected to 30 minutes of ischemia, followed by 24 hours of reperfusion while being treated with a pharmacological KLF5 inhibitor, namely ML264. ML264 (25 mg/kg/12 h) was dissolved in 10% DMSO, 10% Tween 80, and 80% normal saline, and was administered by intraperitoneal injection in mice.
# A first dose of ML264 was administered five minutes before the reopening of the coronary artery, due to the clinical application that this time point holds, as well as previous reports about the importance of this time point regarding the pharmacological possibilities for the cardioprotection against I/R injury. 2D echocardiography was performed after 24 hours of reperfusion.
# [2] = system: myocardial ischemia-reperfusion injury in mice; assay: Infarct size evaluation upon Evans Blue/TTC staining after myocardial I/R; assay type: in vivo, mouse (C57BL/6); details: ML264 25 mg/kg/12 h intraperitoneal; 30 min ischemia, 24 h reperfusion; vs vehicle
# Procedure: as §1
# Double staining of the heart with Evans Blue dye and Triphenyl-Tetrazolium Chloride (TTC) solution was employed for infarct size measurements. Mice were anesthetized upon 3% isoflurane inhalation. The thorax was cut and opened, and hearts were gently excised. Then, the aorta was cannulated and perfused with 5 mL of normal saline. The suture was re-tightened and Evans Blue solution (2.5% in WFI) was slowly infused through the aorta, to differentiate the ischemic part of the myocardium from the non-occluded, normally perfused area. The hearts were sliced into 1-2 mm sections immediately following. The heart slices were incubated with TTC solution (1% in PBS, pH=7.4) at 37 °C for 20 min. In this way, the necrotic area is delimited as a white area, while the viable tissue is stained red. […] The overall size of each slice (All/A), the area-at-risk (R), and the infarct area (I) were determined in a blinded manner for each slice using ImageJ software, and the percentages of Area at Risk (R/A) % and I/R % were calculated. […]
# Administration of these two compounds was performed 5 minutes before the reopening of the coronary artery and infarct size was assessed upon 30 minutes of ischemia followed by 24 hours of reperfusion therapy.
# cardiac fibrosis in mice = assay: Masson's Trichrome staining, cardiac fibrosis in chronic model of I/R injury; assay type: in vivo, mouse (C57BL/6); details: 30 min ischemia, 4 weeks reperfusion; two doses of ML264 at early reperfusion
# Procedure: as §1, with “At the end of the 30-minute ischemia period, the ligature was released for the induction of reperfusion, and then the manual evacuation of air and closure of muscle and skin were performed.” left out, “Sustain-released buprenorphine (BupSR, 0.5 mg/kg body weight) was provided by subcutaneous injection. Mice were then left to recover until the end of the reperfusion (2 hours, 12 hours, 24 hours, or 4 weeks). The sham group underwent the same surgical procedure except that the LAD was not occluded.” left out
# Tissue sectioning and Masson's Trichrome staining were performed. […] Fibrotic myocardial tissue size was measured as % area with respect to the total slice area in mouse hearts imaged at 0.8×. […]
# Ugp = Ugp mRNA expression after I/R; assay type: in vivo, mouse; details: ML-264 treatment
# Procedure: The myocardial ischemia/reperfusion surgical protocol was applied as follows. Mice were anesthetized with 2% isoflurane inhalation until anesthesia was achieved. The animals' body temperature was maintained at 37 °C throughout the surgical procedure using a heating pad. A tracheal tube was placed via tracheal intubation and the respiration rate was set at 150 strokes/min with a tidal volume of 200 μL, using Minivent ventilator for mice (Model 845, Harvard Apparatus). A 1.2 cm incision was made over the left chest. After retraction of the pectoral major and minor muscles, the fourth intercostal space was exposed. […] The mouse was then monitored during the recovery period, which was generally completed within 3 to 5 minutes. […]
# Total RNA was purified from heart tissue using the TRIzol reagent according to the instructions of the manufacturer (ThermoFischer Scientific, Cat. No.: 15596018). cDNA synthesis was performed using the Applied Biosystems High Capacity cDNA Reverse Transcription Kit (ThermoFischer Scientific, Cat. No.: 4368814) from 500 ng RNA, which had been treated with DNAase I (ThermoFischer Scientific, Cat. No.: 18068015). Quantitative real-time PCR was performed with the SYBR Select Master Mix (ThermoFischer Scientific, Cat. No.: 4472903) using the manufacturer's recommendations. […]
compound,measurement,setting,value
CN(C(=O)CNC(=O)/C=C/c1cccc(Cl)c1)C1CCS(=O)(=O)CC1 [ML264],global circumferential strain,[1],significant increase
same,lateral wall circumferential strain,[1],significant increase
same,lateral wall circumferential strain rate,[1],significant increase
same,lateral wall radial strain,[1],significant increase
same,lateral wall radial strain rate,[1],significant increase
same,infarct size,[2],significant reduction
same,fibrotic scar tissue formation,cardiac fibrosis in mice,significant reduction
same,relative mRNA expression of Ugp,Ugp,did not result in a change
